Patent US7141676B1, “Water soluble multi-biotin-containing compounds” (University of Washington, priority 1996, dated 2006)

Experiments:
streptavidin = target: T1, streptavidin (Streptomyces avidinii, UniProt P22629); test: Streptavidin cross-linking with biotin compounds on streptavidin coated polystyrene plate using 125I labeled streptavidin (Example 7); format: binding; conditions: 100 pmol biotin compound, 25 pmol 125I streptavidin per well, up to 4 alternating additions
T1 construct: purchased Pierce
Excerpt: This experiment was designed to test streptavidin cross-linking with biotin monomer, biotin dimers comprising water-soluble linkers, and biotin moiety trimers comprising water-soluble linkers. Each of the biotin dimers and trimers used experimentally was water-soluble. […] The biotin dimers used herein are structures 28, 29, and 30. The trimers used herein are structures 23 (page 26), 24 (page 26), and 31. The biotin monomer used herein is the N-[13-(p-iodobenzamido)4,7,10-trioxatridacanyl]biotinamide.
A Reacti-Bind Streptavidin Coated Polystyrene Strip Place (Pierce) was washed with 100 mM PBS prior to use. To lane one (12-wells) was added 100 μL PBS. To lanes 2–7 were added 100 pmol of biotin dimer or biotin trimer to be tested in 100 μL PBS. Lane 8 was treated in the same manner with 100 pmol of biotin monomer. The plate then was incubated at 37° C. with shaking for 10 minutes. All the wells then were emptied and rinsed with 100 μL PBS. The PBS was removed and 25 pmol of ^125I labeled streptavidin (specific activity of 1 μCi/ug) in 100 μL PBS was added to each well. […]
The first 9 wells in each lane were then filled with 100 μL PBS and the remaining 3 wells in each lane were filled with 100 μL of their respective dimer or trimer. […] The amount of activity remaining in each well was determined as a percentage of the highest initial streptavidin binding.

[1] = Water solubility (dissolve in water, stand about 24 hours, centrifuge, HPLC of aqueous layer); format: physicochemical; conditions: pH 7, water, thermodynamic from solid, neutral pH and ambient temperature
Excerpt: The solubility of biotin moieties in aqueous media is enhanced according to the present invention by attaching a water-soluble linker moiety, typically through the carboxylate group of the biotin. Water-soluble linker moieties, L, according to the present invention, compromise any linker moiety that, when conjugated or coupled (e.g., covalently bonded) to a biotin moiety and the cross-linker, C, increases the water solubility of the biotin-containing compound. […] Dissolving the compound in water, stirring the solution, and allowing the solution to stand at room temperature for about 24 hours determines solubility. The solution then is centrifuged and the resultant aqueous layer analyzed using high performance liquid chromatography (“HPLC”). The HPLC analysis is conducted with a gradient using acetonitrile or methanol and water as the solvent mixture on a reversed-phase column.

[2] = neutral pH and ambient temperature; cited from earlier work

Row | solubility [1] [µg/mL] | Structure (SMILES) | further results
1 |  | O=C(CCCC[C@@H]1SC[C@@H]2NC(=O)N[C@@H]21)NCCCOCCOCCOCCCNC(=O)c1ccc(I)cc1 [biotin monomer, N-[13-(p-iodobenzamido)4,7,10-trioxatridacanyl]biotinamide] | streptavidin binding as a function of sequential biotin compound additions (FIG. 1) (streptavidin): Neither the biotin monomer nor any of the biotin dimers tested demonstrated appreciable increases in streptavidin binding
2 | > 200 | O=C(CCCCC1SCC2NC(=O)NC21)NCCOCCONC(=O)CCCCC1SCC2NC(=O)NC21 (centres unmarked) [structure 28] | 
3 | > 200 | O=C(CCCCC1SCC2NC(=O)NC21)NCCCOCCOCCOCCNC(=O)c1cc(C(=O)NCCOCCOCCNC(=O)CCCCC2SCC3NC(=O)NC32)cc(C(=O)NCCOCCOCCNC(=O)CCCCC2SCC3NC(=O)NC32)c1 (centres unmarked) [structure 24] | 
4 |  | O=C(O)CCCC[C@@H]1SC[C@@H]2NC(=O)N[C@@H]21 [biotin] | solubility in water [2]: approximately 0.2 mg/mL
5 | > 200 | O=C(CCCCC1SCC2NC(=O)NC21)NCCCOCCOCCOCCCNC(=O)CCCCC1SCC2NC(=O)NC21 (centres unmarked) [structure 29] | 
6 | > 200 | CC(CC(=O)NCCCOCCOCCOCCCNC(=O)c1cc(C(=O)NCCCOCCOCCOCCCNC(=O)CC(C)NC(=O)CCCCC2SCC3NC(=O)NC32)cc(C(=O)NCCCOCCOCCOCCCNC(=O)CC(C)NC(=O)CCCCC2SCC3NC(=O)NC32)c1)NC(=O)CCCCC1SCC2NC(=O)NC21 (centres unmarked) [structure 31] | 
7 | > 200 | O=C(CCCCC1SCC2NC(=O)NC21)NCCCOCCOCCOCCCNC(=O)c1cc(C(=O)NCCCOCCOCCOCCCNC(=O)CCCCC2SCC3NC(=O)NC32)cc(C(=O)NCCCOCCOCCOCCCNC(=O)CCCCC2SCC3NC(=O)NC32)c1 (centres unmarked) [structure 23] | 
8 | > 200 | CC(CC(=O)NCCCOCCOCCOCCCNC(=O)CC(C)NC(=O)CCCCC1SCC2NC(=O)NC21)NC(=O)CCCCC1SCC2NC(=O)NC21 (centres unmarked) [structure 30] | 
